Data reported in PubChem BioAssay AID330 (DTP/NCI, 2004).
Several values for one entry are separate records, joined by “and”; a condition that tells them apart may be missing. Equal entries are not always repeated. Inconclusive results and toxic doses are left out. Rule for the calls: active = survival T/C of 150% or more; inactive = T/C below 125% in these data.

Tested on: P388 leukemia ip, CD2F1 mice, survival T/C
Test: NCI In Vivo Anticancer Drug Screen. Data for tumor model P388 Leukemia (intraperitoneal) in CD2F1 (CDF1) mice
Settings: endpoint: median survival time, higher = longer survival
In short: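 Mice carrying the transplanted tumor received test compound or vehicle. Survival was recorded in each group, and the value is the treated-group measurement divided by that of the vehicle-treated control group.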

[1] = dose: 100.0 mg/kg/injection, schedule: Q01DX001 (ip), vehicle: saline with Tween-80
[2] = dose: 200.0 mg/kg/injection, schedule: Q01DX001 (ip), vehicle: saline with Tween-80
[3] = dose: 400.0 mg/kg/injection, schedule: Q01DX001 (ip), vehicle: saline with Tween-80
[4] = dose: 50.0 mg/kg/injection, schedule: Q01DX009 (ip), vehicle: saline with Tween-80
[5] = dose: 50.0 mg/kg/injection, schedule: Q01DX005 (ip), vehicle: Klucel (hydroxypropylcellulose) (HPC)
[6] = dose: 100.0 mg/kg/injection, schedule: Q01DX005 (ip), vehicle: Klucel (hydroxypropylcellulose) (HPC)
[7] = dose: 50.0 mg/kg/injection, schedule: Q01DX009 (ip), vehicle: Klucel (hydroxypropylcellulose) (HPC)
[8] = dose: 100.0 mg/kg/injection, schedule: Q01DX009 (ip), vehicle: Klucel (hydroxypropylcellulose) (HPC)
[9] = dose: 200.0 mg/kg/injection, schedule: Q01DX009 (ip), vehicle: Klucel (hydroxypropylcellulose) (HPC)
[10] = dose: 100.0 mg/kg/injection, schedule: Q04DX003 (ip), vehicle: Klucel (hydroxypropylcellulose) (HPC)

Measured: T/C

CC(C)=C(Nc1ccccc1)NC(C)C
inactive: dose: 6.25 mg/kg/injection, schedule: Q01DX005 (ip), vehicle: saline 103 % of control | dose: 12.5 mg/kg/injection, schedule: Q01DX005 (ip), vehicle: saline 103 % of control and 104 % of control | dose: 25.0 mg/kg/injection, schedule: Q01DX005 (ip), vehicle: saline 106 % of control and 120 % of control | dose: 50.0 mg/kg/injection, schedule: Q01DX005 (ip), vehicle: saline 118 % of control

Cc1c(NC(=O)CCCl)c(=O)oc2c(C)c3occc(=O)c3cc12
inactive: [1] 100 % of control | [2] 99 % of control | [3] 90 % of control

CCOC(=O)CC(C)C#N (stereo not drawn)
inactive: [4] 99 % of control | dose: 100.0 mg/kg/injection, schedule: Q01DX009 (ip), vehicle: saline with Tween-80 99 % of control | dose: 200.0 mg/kg/injection, schedule: Q01DX009 (ip), vehicle: saline with Tween-80 101 % of control

CCOC(=O)c1cn(C)c2c1C(=O)C(C(=O)OCC)CC(=O)N2 (stereo not drawn)
inactive: dose: 50.0 mg/kg/injection, schedule: Q01DX005 (ip), vehicle: saline + Tween-80 + alcohol 94 % of control | dose: 100.0 mg/kg/injection, schedule: Q01DX005 (ip), vehicle: saline + Tween-80 + alcohol 99 % of control | dose: 200.0 mg/kg/injection, schedule: Q01DX005 (ip), vehicle: saline + Tween-80 + alcohol 101 % of control

NN/C(N)=N/S(=O)(=O)c1ccccc1
inactive: [5] 107 % of control | [6] 102 % of control

CC(=O)C1C(=O)C(=O)N(c2ccc(C)cc2C)C1=O (stereo not drawn)
inactive: [7] 105 % of control | [8] 114 % of control | [9] 110 % of control

O=C1CC2(CCCC2)CC(=O)N1c1ccc(-c2ccc(N3C(=O)CC4(CCCC4)CC3=O)cc2)cc1
inactive: [7] 100 % of control | [8] 94 % of control

CCOC(=O)/C(C(C)=O)=C1/c2c(ccc(OC)c2OC)C=C2c3cc4c(cc3CCN21)OCO4
inactive: dose: 0.63 mg/kg/injection, schedule: Q01DX009 (ip), vehicle: water 105 % of control | dose: 1.25 mg/kg/injection, schedule: Q01DX009 (ip), vehicle: water 108 % of control | dose: 2.5 mg/kg/injection, schedule: Q01DX009 (ip), vehicle: water 101 % of control | dose: 5.0 mg/kg/injection, schedule: Q01DX009 (ip), vehicle: water 124 % of control | dose: 10.0 mg/kg/injection, schedule: Q01DX009 (ip), vehicle: water 101 % of control | dose: 20.0 mg/kg/injection, schedule: Q01DX009 (ip), vehicle: water 107 % of control

CCOC(=O)C(/C=N\c1[nH]ncc1C#N)=C(/C(=O)OCC)c1ccc(O)cc1
inactive: [5] 110 % of control | [6] 105 % of control | dose: 200.0 mg/kg/injection, schedule: Q01DX005 (ip), vehicle: Klucel (hydroxypropylcellulose) (HPC) 105 % of control

c1ccc2c(NCCCCCNc3c4ccccc4nc4ccccc34)c3ccccc3nc2c1
inactive: dose: 0.63 mg/kg/injection, schedule: Q01DX009 (ip), vehicle: other 103 % of control | dose: 1.25 mg/kg/injection, schedule: Q01DX009 (ip), vehicle: other 108 % of control | dose: 2.5 mg/kg/injection, schedule: Q01DX009 (ip), vehicle: other 100 % of control | dose: 3.75 mg/kg/injection, schedule: Q01DX009 (ip), vehicle: other 112 % of control | dose: 5.0 mg/kg/injection, schedule: Q01DX009 (ip), vehicle: other 117 % of control | dose: 10.0 mg/kg/injection, schedule: Q01DX009 (ip), vehicle: other 122 % of control

Cn1c(-c2ccccc2)c2c(=O)oc3ccccc3c2c1-c1ccccc1
inactive: dose: 25.0 mg/kg/injection, schedule: Q04DX003 (ip), vehicle: Klucel (hydroxypropylcellulose) (HPC) 97 % of control | dose: 50.0 mg/kg/injection, schedule: Q04DX003 (ip), vehicle: Klucel (hydroxypropylcellulose) (HPC) 100 % of control | [10] 88 % of control and 94 % of control

C1=CC2CC1CC2[P+](c1ccccc1)(c1ccccc1)c1ccccc1 (stereo not drawn)
inactive: dose: 12.5 mg/kg/injection, schedule: Q01DX001 (ip), vehicle: saline 102 % of control | dose: 25.0 mg/kg/injection, schedule: Q01DX001 (ip), vehicle: saline 115 % of control | dose: 50.0 mg/kg/injection, schedule: Q01DX001 (ip), vehicle: saline 97 % of control

c1cc(C2CCOCC2)ccn1
inactive: dose: 12.5 mg/kg/injection, schedule: Q01DX009 (ip), vehicle: saline with Tween-80 100 % of control | dose: 12.5 mg/kg/injection, schedule: Q04DX003 (ip), vehicle: saline with Tween-80 100 % of control | dose: 25.0 mg/kg/injection, schedule: Q01DX009 (ip), vehicle: saline with Tween-80 90 % of control | dose: 25.0 mg/kg/injection, schedule: Q04DX003 (ip), vehicle: saline with Tween-80 100 % of control | [4] 100 % of control | dose: 50.0 mg/kg/injection, schedule: Q04DX003 (ip), vehicle: saline with Tween-80 95 % of control

C[CH2][Ge]([CH2]C)[CH2]C.C[CH2][Ge]([CH2]C)[O]C
inactive: dose: 50.0 mg/kg/injection, schedule: Q01DX009 (ip), vehicle: saline 106 % of control | dose: 100.0 mg/kg/injection, schedule: Q01DX009 (ip), vehicle: saline 92 % of control | dose: 200.0 mg/kg/injection, schedule: Q01DX009 (ip), vehicle: saline 92 % of control

C=CCCCCCCCCC(=O)N1C(=O)C(c2ccccc2)(c2ccccc2)CSC1=S
inactive: [7] 91 % of control | [8] 92 % of control | [9] 90 % of control

COc1cccc2c1S(=O)(=O)C(c1ccccc1)=CC2=O
inactive: dose: 60.0 mg/kg/injection, schedule: Q01DX005 (ip), vehicle: Klucel (hydroxypropylcellulose) (HPC) 105 % of control | dose: 120.0 mg/kg/injection, schedule: Q01DX005 (ip), vehicle: Klucel (hydroxypropylcellulose) (HPC) 105 % of control | dose: 240.0 mg/kg/injection, schedule: Q01DX005 (ip), vehicle: Klucel (hydroxypropylcellulose) (HPC) 120 % of control

Cn1cnc([N+](=O)[O-])c1N1CCN(c2ccccc2)CC1
inactive: [1] 97 % of control | [2] 93 % of control | [3] 94 % of control

CS(=O)(=O)CC(=N\N)/C(CS(C)(=O)=O)=N/N
inactive: dose: 60.0 mg/kg/injection, schedule: Q01DX005 (ip), vehicle: saline 100 % of control | dose: 120.0 mg/kg/injection, schedule: Q01DX005 (ip), vehicle: saline 100 % of control | dose: 240.0 mg/kg/injection, schedule: Q01DX005 (ip), vehicle: saline 108 % of control

CCO/C=C(/C#N)C(=O)OC
inactive: dose: 100.0 mg/kg/injection, schedule: Q04DX002 (ip), vehicle: saline 100 % of control | dose: 200.0 mg/kg/injection, schedule: Q04DX002 (ip), vehicle: saline 101 % of control | dose: 400.0 mg/kg/injection, schedule: Q04DX002 (ip), vehicle: saline 100 % of control

CSc1nccc(=O)n1-c1ccccc1
inactive: [10] 91 % of control | dose: 200.0 mg/kg/injection, schedule: Q04DX003 (ip), vehicle: Klucel (hydroxypropylcellulose) (HPC) 92 % of control

COc1ccc2sc3c(C)ccc(NCCCC4CCCN5CCCCC45)c3c(=O)c2c1 (stereo not drawn)
inactive: dose: 6.25 mg/kg/injection, schedule: Q01DX005 (ip), vehicle: saline with Tween-80 94 % of control | dose: 12.5 mg/kg/injection, schedule: Q01DX005 (ip), vehicle: saline with Tween-80 92 % of control | dose: 25.0 mg/kg/injection, schedule: Q01DX005 (ip), vehicle: saline with Tween-80 89 % of control

OC1(c2ccccc2)c2ccccc2-c2ccccc21
inactive: dose: 100.0 mg/kg/injection, schedule: Q04DX003 (ip), vehicle: saline with Tween-80 109 % of control | dose: 200.0 mg/kg/injection, schedule: Q04DX003 (ip), vehicle: saline with Tween-80 109 % of control | dose: 400.0 mg/kg/injection, schedule: Q04DX003 (ip), vehicle: saline with Tween-80 104 % of control
